In PubChem BioAssay AID328 (DTP/NCI, 2004):
“And” between values parts separate entries of the source, which are not always exact repeats. Equal values may be shown once. Inconclusive results and toxic doses are left out. How the source made its calls: active means survival T/C of 150% or more; inactive means T/C below 125% in these data.

Test system: BDF1 mice, P388 leukemia ip, median survival T/C
Test: NCI In Vivo Anticancer Drug Screen. Data for tumor model P388 Leukemia (intraperitoneal) in B6D2F1 (BDF1) mice
Conditions: endpoint: median survival time, higher = longer survival
Outline: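 Read-out is survival of treated animals expressed relative to the vehicle group, as a T/C ratio.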

[1] = dose: 25.0 mg/kg/injection, schedule: Q01DX009 (ip), vehicle: saline
[2] = dose: 100.0 mg/kg/injection, schedule: Q01DX009 (ip), vehicle: saline
[3] = dose: 400.0 mg/kg/injection, schedule: Q01DX009 (ip), vehicle: saline
[4] = dose: 100.0 mg/kg/injection, schedule: Q04DX003 (ip), vehicle: Klucel (hydroxypropylcellulose) (HPC)
[5] = dose: 200.0 mg/kg/injection, schedule: Q04DX003 (ip), vehicle: Klucel (hydroxypropylcellulose) (HPC)
[6] = dose: 400.0 mg/kg/injection, schedule: Q04DX003 (ip), vehicle: Klucel (hydroxypropylcellulose) (HPC)
[7] = dose: 100.0 mg/kg/injection, schedule: Q01DX009 (ip), vehicle: saline with Tween-80
[8] = dose: 200.0 mg/kg/injection, schedule: Q01DX009 (ip), vehicle: saline with Tween-80
[9] = dose: 400.0 mg/kg/injection, schedule: Q01DX009 (ip), vehicle: saline with Tween-80
[10] = dose: 25.0 mg/kg/injection, schedule: Q01DX009 (ip), vehicle: saline with Tween-80
[11] = dose: 50.0 mg/kg/injection, schedule: Q01DX009 (ip), vehicle: saline with Tween-80
[12] = dose: 400.0 mg/kg/injection, schedule: Q04DX003 (ip), vehicle: saline with Tween-80
[13] = dose: 100.0 mg/kg/injection, schedule: Q01DX009 (ip), vehicle: Klucel (hydroxypropylcellulose) (HPC)
[14] = dose: 200.0 mg/kg/injection, schedule: Q01DX009 (ip), vehicle: Klucel (hydroxypropylcellulose) (HPC)
[15] = dose: 400.0 mg/kg/injection, schedule: Q01DX009 (ip), vehicle: Klucel (hydroxypropylcellulose) (HPC)
[16] = dose: 50.0 mg/kg/injection, schedule: Q01DX009 (ip), vehicle: saline

Measured: T/C

C=CCCC(=O)OC(C)(C)C
inactive: dose: 12.5 mg/kg/injection, schedule: Q01DX009 (ip), vehicle: water 103 % of control | [1] 109 % of control | dose: 25.0 mg/kg/injection, schedule: Q01DX009 (ip), vehicle: water 100 % of control | dose: 25.0 mg/kg/injection, schedule: Q04DX003 (ip), vehicle: water 106 % of control | dose: 50.0 mg/kg/injection, schedule: Q01DX009 (ip), vehicle: water 100 % of control | dose: 50.0 mg/kg/injection, schedule: Q04DX003 (ip), vehicle: water 116 % of control | [2] 109 % of control | dose: 100.0 mg/kg/injection, schedule: Q04DX003 (ip), vehicle: water 114 % of control | dose: 200.0 mg/kg/injection, schedule: Q04DX003 (ip), vehicle: water 98 % of control | [3] 100 % of control | dose: 400.0 mg/kg/injection, schedule: Q04DX003 (ip), vehicle: water 114 % of control

Cc1cccc2cc3cccc(C)[n+]3cc12
inactive: dose: 5.0 mg/kg/injection, schedule: Q01DX010 (ip), vehicle: saline 100 % of control

CC1(C)Cc2cc3cc(Cl)ccc3nc2-c2ccccc21
inactive: [2] 110 % of control | [4] 110 % of control | dose: 200.0 mg/kg/injection, schedule: Q01DX009 (ip), vehicle: saline 105 % of control | [5] 115 % of control | [3] 110 % of control | [6] 110 % of control

COC(=O)C(CCC1CCCCN1)(c1ccccc1)c1ccccc1 (stereo not drawn)
inactive: dose: 66.0 mg/kg/injection, schedule: Q04DX003 (ip), vehicle: saline with Tween-80 123 % of control | [2] 90 % of control

O=[N+]([O-])c1ccc(S(=O)c2ccc([N+](=O)[O-])c3nonc23)cc1 (stereo not drawn)
inactive: dose: 15.0 mg/kg/injection, schedule: Q01DX009 (ip), vehicle: saline with Tween-80 90 % of control | dose: 30.0 mg/kg/injection, schedule: Q01DX009 (ip), vehicle: saline with Tween-80 97 % of control

Clc1ccc(-c2ncnc3c2Cc2ccccc2-3)cc1
inactive: [7] 112 % of control | [8] 116 % of control | [9] 100 % of control

COc1cc2c(cc1OC)-c1cc3cc(OC)c(OC)cc3c(C)[n+]1CC2 (tested in a mixture with another compound)
inactive: dose: 12.5 mg/kg/injection, schedule: Q01DX009 (ip), vehicle: Klucel (hydroxypropylcellulose) (HPC) 103 % of control | [10] 104 % of control | dose: 50.0 mg/kg/injection, schedule: Q01DX009 (ip), vehicle: Klucel (hydroxypropylcellulose) (HPC) 123 % of control | [11] 113 % of control
active: [7] 154 % of control

C=CCCCCCCCCC(=O)Cl
inactive: dose: 100.0 mg/kg/injection, schedule: Q04DX003 (ip), vehicle: saline with Tween-80 108 % of control | dose: 200.0 mg/kg/injection, schedule: Q04DX003 (ip), vehicle: saline with Tween-80 104 % of control | [12] 100 % of control

S=C1SC2(CCCCCC2)NC2=C1CCCCC2
inactive: [13] 106 % of control | [14] 103 % of control | [15] 105 % of control

CCCCCCCCCCCC[N+](CC)(CC)CC(=O)O
inactive: dose: 33.0 mg/kg/injection, schedule: Q01DX009 (ip), vehicle: saline 113 % of control | [16] 113 % of control

CCCCCCCCCCCCCCCCCC(N)=O
inactive: [4] 90 % of control | [5] 95 % of control | [6] 100 % of control

O=C(c1ccccc1)c1cc(-c2ccccc2)n(C2CCCCC2)c1
inactive: [10] 96 % of control | [11] 86 % of control | [7] 94 % of control | [8] 96 % of control

Cc1ccc(CNc2cccnc2)cc1
inactive: dose: 50.0 mg/kg/injection, schedule: Q01DX009 (ip), vehicle: other 95 % of control | dose: 100.0 mg/kg/injection, schedule: Q01DX009 (ip), vehicle: other 104 % of control | [7] 100 % of control | dose: 200.0 mg/kg/injection, schedule: Q01DX009 (ip), vehicle: other 100 % of control | [9] 100 % of control

O=S(=O)(Nc1c(Cl)c(Cl)c(Cl)c(Cl)c1NS(=O)(=O)c1ccccc1)c1ccccc1
inactive: [4] 100 % of control | [5] 105 % of control | [6] 100 % of control

Cc1cnc2ncn(Cc3c[nH]c(=O)[nH]c3=O)c(=O)c2c1
inactive: dose: 12.5 mg/kg/injection, schedule: Q01DX001 (ip), vehicle: saline with Tween-80 105 % of control and 112 % of control | dose: 25.0 mg/kg/injection, schedule: Q01DX001 (ip), vehicle: saline with Tween-80 104 % of control and 109 % of control | dose: 50.0 mg/kg/injection, schedule: Q01DX001 (ip), vehicle: saline with Tween-80 102 % of control

COc1cc2cnc3c4cc(OC)c(OC)cc4ccc3c2cc1OC
inactive: dose: 20.0 mg/kg/injection, schedule: Q01DX009 (ip), vehicle: saline with Tween-80 100 % of control | dose: 40.0 mg/kg/injection, schedule: Q01DX009 (ip), vehicle: saline with Tween-80 100 % of control | dose: 80.0 mg/kg/injection, schedule: Q01DX009 (ip), vehicle: saline with Tween-80 115 % of control | dose: 120.0 mg/kg/injection, schedule: Q01DX009 (ip), vehicle: saline with Tween-80 100 % of control | dose: 240.0 mg/kg/injection, schedule: Q01DX009 (ip), vehicle: saline with Tween-80 100 % of control

C[C@H]1/C(=C/C(=O)OCCN(C)C)CC[C@H]2[C@H]1C(=O)C[C@H]1C(C)(C)[C@@H](O)CC[C@]21C
inactive: dose: 4.0 mg/kg/injection, schedule: Q01DX010 (ip), vehicle: saline 100 % of control | dose: 8.0 mg/kg/injection, schedule: Q01DX010 (ip), vehicle: saline 100 % of control | dose: 16.0 mg/kg/injection, schedule: Q01DX010 (ip), vehicle: saline 104 % of control | dose: 32.0 mg/kg/injection, schedule: Q01DX010 (ip), vehicle: saline 95 % of control and 104 % of control

C/C(=N\N)c1ccc(Cl)cc1
inactive: dose: 6.25 mg/kg/injection, schedule: Q01DX009 (ip), vehicle: saline with Tween-80 100 % of control | dose: 12.5 mg/kg/injection, schedule: Q01DX009 (ip), vehicle: saline with Tween-80 104 % of control | [10] 95 % of control

CCOC(=O)C(C)NC(=O)N(C)C12CC3CC(CC(C3)C1)C2 (stereo not drawn)
inactive: [13] 113 % of control | [14] 117 % of control | [15] 119 % of control

O=C1C=C/C(=N/S(=O)(=O)c2ccccc2)c2ccccc21
inactive: dose: 0.37 mg/kg/injection, schedule: Q01DX009 (ip), vehicle: DMSO 100 % of control | dose: 0.75 mg/kg/injection, schedule: Q01DX009 (ip), vehicle: DMSO 100 % of control | dose: 1.5 mg/kg/injection, schedule: Q01DX009 (ip), vehicle: DMSO 100 % of control | dose: 12.0 mg/kg/injection, schedule: Q01DX009 (ip), vehicle: DMSO 92 % of control | dose: 25.0 mg/kg/injection, schedule: Q04DX003 (ip), vehicle: DMSO 91 % of control | dose: 50.0 mg/kg/injection, schedule: Q04DX003 (ip), vehicle: DMSO 104 % of control | dose: 100.0 mg/kg/injection, schedule: Q04DX003 (ip), vehicle: DMSO 100 % of control

C=CCN(CC=C)CCN(CC)CC
inactive: dose: 6.25 mg/kg/injection, schedule: Q01DX009 (ip), vehicle: saline 111 % of control | dose: 12.5 mg/kg/injection, schedule: Q01DX009 (ip), vehicle: saline 101 % of control | [1] 109 % of control | [16] 101 % of control

CC1(c2ccc(Cl)s2)NC(=O)NC1=O (stereo not drawn)
inactive: dose: 300.0 mg/kg/injection, schedule: Q04DX003 (ip), vehicle: saline with Tween-80 100 % of control | [12] 98 % of control | dose: 600.0 mg/kg/injection, schedule: Q04DX003 (ip), vehicle: saline with Tween-80 86 % of control

CC1CC(C)(C)N=C(C(C)CC(C)(C)C)O1 (stereo not drawn)
inactive: dose: 50.0 mg/kg/injection, schedule: Q04DX003 (ip), vehicle: saline sonified 90 % of control | dose: 100.0 mg/kg/injection, schedule: Q04DX003 (ip), vehicle: saline sonified 100 % of control | dose: 200.0 mg/kg/injection, schedule: Q04DX003 (ip), vehicle: saline sonified 100 % of control
